These results are taken from US8633245B2, “PAI-1 inhibitor” (Institute of Medicinal Molecular Design, Inc., priority 2008, dated 2014).

The target of assay [1] is T1, recombinant human PAI-1 (Homo sapiens, UniProt P05121).
T1 construct: purchased Molecular Innovations, Inc
Briefly: Test Example 1: human PAI-1 inhibitory activity (tPA fluorogenic substrate, pH 7.5 Tris buffer). The assay is classed as biochemical. Conditions: Tris buffer. On the procedure:
50 mM Tris, 150 mM NaCl, 10 μg/ml BSA, 0.01% Tween80 (SIGMA-ALDRICH Corporation)

The target of assay [2] is T1, recombinant human PAI-1. Briefly: Test Example 2: human PAI-1 inhibitory activity (tPA fluorogenic substrate, pH 7.4 HEPES buffer). It counts as biochemical. The conditions noted are these: human PAI-1. As to the method: 0.1 M HEPES, 0.1 M NaCl. 1 mM EDTA. 0.1% Polyethylene glycol 8,000 (Hampton Research Corporation),
2 mM Dimethyldecylphoshine oxide [Apo-10] (Fluka Corporation)

The mark [3] stands for this setting: compound concentration 0.1 μM, 0.1 µM.
[4] abbreviates: compound concentration 1 μM, 1 µM.

Where only a bound is given, the exact number is not on record here.

T1 sequence (P05121 24-402): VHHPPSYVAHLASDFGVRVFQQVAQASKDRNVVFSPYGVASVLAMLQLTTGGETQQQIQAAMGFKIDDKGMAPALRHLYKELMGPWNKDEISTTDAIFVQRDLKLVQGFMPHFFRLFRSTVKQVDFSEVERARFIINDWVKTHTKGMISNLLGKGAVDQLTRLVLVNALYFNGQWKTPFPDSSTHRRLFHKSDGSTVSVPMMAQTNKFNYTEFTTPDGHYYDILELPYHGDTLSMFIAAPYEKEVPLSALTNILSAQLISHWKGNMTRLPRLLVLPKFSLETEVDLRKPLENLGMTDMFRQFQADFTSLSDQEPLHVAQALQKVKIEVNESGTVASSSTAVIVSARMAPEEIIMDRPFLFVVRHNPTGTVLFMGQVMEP

Regarding `O=C(O)Cc1cc(-c2ccc(OC(F)(F)F)cc2)ccc1OCc1ccccc1` [Compound 1], the “Inhibition Rate of PAI-1 Activity (%)” value on recombinant human PAI-1 [1] (Compound Concentration 5 μM) was found to be 18%; on recombinant human PAI-1 [1] (Compound Concentration 10 μM), 31%.
On the same counts, the results for `O=C(O)CCc1cc(-c2ccc(OC(F)(F)F)cc2)ccc1OCc1ccccc1` [Compound 3] are 35% and 68%.
On the same counts, the results for `CC(C)(C)c1ccc(COc2ccc(-c3ccc(OC(F)(F)F)cc3)cc2C=CC(=O)O)cc1` [Compound 4] are 84% and 78%.
For `CC(C)(C)c1ccc(COc2ccc(-c3ccc(OC(F)(F)F)cc3)cc2NC(=O)C(=O)[O-])cc1.[Na+]` [Compound 6], in that order: 83% and 94%.
For the molecule `CC(C)(C)c1ccc(COc2ccc(-c3ccc4c(c3)OCO4)cc2CC(=O)O)cc1` [Compound 10], the “Inhibition Rate of PAI-1 Activity (%)” value on recombinant human PAI-1 [1] (Compound Concentration 5 μM) is 32%; on recombinant human PAI-1 [1] (Compound Concentration 10 μM) it was 65%; on recombinant human PAI-1 [1] (Compound Concentration 25 μM) it was greater than 99%.
For `Cc1cc(C)cc(COc2ccc(-c3ccc(OC(F)(F)F)cc3)cc2CC(=O)O)c1` [Compound 11], in that order: 41%, 84% and 99%.
With `CC(C)(C)c1ccc(Oc2ccc(-c3ccc(OC(F)(F)F)cc3)cc2C=CC(=O)O)cc1` [Compound 12], the “Inhibition Rate of PAI-1 Activity (%)” value at recombinant human PAI-1 [1] (Compound Concentration 5 μM) is given as 92%; on recombinant human PAI-1 [1] (Compound Concentration 10 μM) it was 94%.
`O=C(O)CCc1cc(-c2ccc(OC(F)(F)F)cc2)ccc1Oc1ccc(C(=O)O)cc1` [Compound 14]: the “Inhibition Rate of PAI-1 Activity (%)” value at recombinant human PAI-1 [1] (Compound Concentration 10 μM) is 3%.
For `O=C(O)C=Cc1cc(-c2ccc(OC(F)(F)F)cc2)ccc1Oc1ccc(OC(F)(F)F)cc1` [Compound 15], the results for the “Inhibition Rate of PAI-1 Activity (%)” value at recombinant human PAI-1 [1] (Compound Concentration 5 μM), on recombinant human PAI-1 [1] (Compound Concentration 10 μM) and at recombinant human PAI-1 [1] (Compound Concentration 25 μM) were 23%, 47% and 94%, respectively.
On the same counts, the results for `O=C(O)CCc1cc(-c2ccc(OC(F)(F)F)cc2)ccc1Oc1ccc(OC(F)(F)F)cc1` [Compound 16] are 23%, 46% and 96%.
As to `O=C(O)CCc1cc(-c2ccc(OC(F)(F)F)cc2)ccc1OCc1ccc(F)cc1` [Compound 20], the “Inhibition Rate of PAI-1 Activity (%)” value on recombinant human PAI-1 [1] (Compound Concentration 10 μM) amounted to 10%; at recombinant human PAI-1 [1] (Compound Concentration 25 μM) it was 53%.
On the same counts, the results for `O=C(O)CCc1cc(-c2ccc(OC(F)(F)F)cc2)ccc1OCc1ccccc1C(F)(F)F` [Compound 21] are 11% and 70%.
For `O=C(O)CCc1cc(-c2ccc(OC(F)(F)F)cc2)ccc1OCc1ccc(C(F)(F)F)cc1` [Compound 22], in that order: 13% and 80%.
For `COc1ccccc1COc1ccc(-c2ccc(OC(F)(F)F)cc2)cc1CCC(=O)O` [Compound 23], in that order: 7% and 47%.
Take `O=C(O)/C=C/c1cc(-c2ccc(OC(F)(F)F)cc2)ccc1OCc1ccccc1` [Compound 24]: the “Inhibition Rate of PAI-1 Activity (%)” value was determined as 11% at recombinant human PAI-1 [1] (Compound Concentration 10 μM) and 64% on recombinant human PAI-1 [1] (Compound Concentration 25 μM).
Take `CC(C)(C)c1ccc(COc2ccc(-c3ccc(OC(F)(F)F)cc3)cc2/C=C/C(=O)O)cc1` [Compound 25]: the “Inhibition Rate of PAI-1 Activity (%)” value on recombinant human PAI-1 [1] (Compound Concentration 5 μM) was 96%; on recombinant human PAI-1 [1] (Compound Concentration 10 μM), 97%; at recombinant human PAI-1 [1] (Compound Concentration 25 μM), 93%.
For the molecule `CC(C)(C)c1ccc(COc2ccc(-c3cccc(C(=O)O)c3)cc2CCC(=O)O)cc1` [Compound 26], the “Inhibition Rate of PAI-1 Activity (%)” value at recombinant human PAI-1 [1] (Compound Concentration 10 μM) is given as 9%; at recombinant human PAI-1 [1] (Compound Concentration 25 μM), 25%.
`O=C(O)CCc1cc(-c2ccc(OC(F)(F)F)cc2)ccc1OCc1ccc(Cl)cc1Cl` [Compound 27]: the “Inhibition Rate of PAI-1 Activity (%)” value on recombinant human PAI-1 [1] (Compound Concentration 5 μM) stood at 5%; at recombinant human PAI-1 [1] (Compound Concentration 10 μM), 29%; on recombinant human PAI-1 [1] (Compound Concentration 25 μM), 92%.
On the same counts, the results for `O=C(O)CCc1cc(-c2ccc(OC(F)(F)F)cc2)ccc1OCc1ccc(-c2ccccc2)cc1` [Compound 29] are 21%, 56% and 88%.
For `CC(C)(C)c1ccc(COc2ccc(-c3ccccc3)cc2/C=C/C(=O)O)cc1` [Compound 31], the “Inhibition Rate of PAI-1 Activity (%)” value is reported as 21% on recombinant human PAI-1 [1] (Compound Concentration 5 μM), 49% on recombinant human PAI-1 [1] (Compound Concentration 10 μM) and 89% on recombinant human PAI-1 [1] (Compound Concentration 25 μM).
For `CC(C)(C)c1ccc(COc2ccc(-c3ccccc3)cc2CCC(=O)O)cc1` [Compound 32], in that order: 22%, 47% and 97%.
For `CC(C)(C)c1ccc(COc2ccc(-c3ccc(F)cc3)cc2/C=C/C(=O)O)cc1` [Compound 33], in that order: 23%, 53% and 96%.
For `CC(C)(C)c1ccc(COc2ccc(-c3ccc(F)cc3)cc2CCC(=O)O)cc1` [Compound 34], in that order: 24%, 53% and 99%.
For the molecule `CC(C)(C)c1ccc(COc2ccc(-c3ccc(C(F)(F)F)cc3)cc2/C=C/C(=O)O)cc1` [Compound 35], the “Inhibition Rate of PAI-1 Activity (%)” value on recombinant human PAI-1 [1] (Compound Concentration 5 μM) came to 28%; on recombinant human PAI-1 [1] (Compound Concentration 10 μM) it was 57%; on recombinant human PAI-1 [1] (Compound Concentration 25 μM), 95%.
On the same counts, the results for `CC(C)(C)c1ccc(COc2ccc(-c3ccc(C(F)(F)F)cc3)cc2CCC(=O)O)cc1` [Compound 36] are 23%, 60% and 99%.
For `COc1ccc(-c2ccc(OCc3ccc(C(C)(C)C)cc3)c(/C=C/C(=O)O)c2)cc1` [Compound 37], the “Inhibition Rate of PAI-1 Activity (%)” value worked out at 23% on recombinant human PAI-1 [1] (Compound Concentration 5 μM), 47% at recombinant human PAI-1 [1] (Compound Concentration 10 μM) and 84% on recombinant human PAI-1 [1] (Compound Concentration 25 μM).
On the same counts, the results for `COc1ccc(-c2ccc(OCc3ccc(C(C)(C)C)cc3)c(CCC(=O)O)c2)cc1` [Compound 38] are 14%, 34% and 93%.
As for `CCCCCOc1ccc(-c2cc(C)cc(C)c2)cc1N(CCCCc1ccccc1)C(=O)C(=O)O` [Compound 672], the “Inhibition Rate of PAI-1 Activity (%)” value is listed as 3% on recombinant human PAI-1 [2] (compound concentration 0.1 μM), 15% at recombinant human PAI-1 [2] (compound concentration 0.3 μM), 92% at recombinant human PAI-1 [2] (compound concentration 1 μM) and greater than 99% on recombinant human PAI-1 [2] (compound concentration 3 μM).
On the same counts, the results for `O=C(O)C(=O)N(CCCCc1ccccc1)c1ccc(N2CCCC2)c(-c2ccc(OC(F)(F)F)cc2)c1` [Compound 673] are 0%, 15%, greater than 99% and greater than 99%.
For `O=C(O)C(=O)N(CCCCc1ccccc1)c1ccc(N2CCCCCC2)c(-c2ccc(OC(F)(F)F)cc2)c1` [Compound 674], in that order: 5%, 55%, greater than 99% and 98%.
In the case of `O=C(O)C(=O)N(CCCCc1ccccc1)c1ccc(N2CCSCC2)c(-c2ccc(OC(F)(F)F)cc2)c1` [Compound 675], the “Inhibition Rate of PAI-1 Activity (%)” value was 10% at recombinant human PAI-1 [2] (compound concentration 0.1 μM), 14% on recombinant human PAI-1 [2] (compound concentration 0.3 μM), 95% at recombinant human PAI-1 [2] (compound concentration 1 μM) and greater than 99% on recombinant human PAI-1 [2] (compound concentration 3 μM).
For `O=C(O)C(=O)N(CCCCc1ccccc1)c1cc(-c2ccc(OC(F)(F)F)cc2)ccc1OCCCCCO` [Compound 676], in that order: 7%, 4%, 60% and greater than 99%.
For `CCCCCOc1ccc(-c2ccc(C)cc2)cc1N(CCCCc1ccccc1)C(=O)C(=O)O` [Compound 677], in that order: 19%, 17%, 93% and 98%.
For `CCCCCOc1ccc(-c2ccc(C(C)C)cc2)cc1N(CCCCc1ccccc1)C(=O)C(=O)O` [Compound 678], in that order: 19%, 33%, 97% and 94%.
With `CC(C)(C)C1CCC(CN(C(=O)C(=O)O)c2ccc(-c3ccc(OC(F)(F)F)cc3)cc2)CC1` (centres unmarked) [Compound 679], the “Inhibition Rate of PAI-1 Activity (%)” value is reported as 6% on recombinant human PAI-1 [2] (setting [3]), 9% at recombinant human PAI-1 [2] (compound concentration 0.3 μM), 84% on recombinant human PAI-1 [2] (setting [4]) and greater than 99% on recombinant human PAI-1 [2] (compound concentration 3 μM).
For `CC(C)(C)C1CCC(CN(C(=O)C(=O)O)c2ccc(-c3ccc(OC(F)(F)F)cc3)cc2)CC1` (centres unmarked) [Compound 680], in that order: 7%, 9%, 77% and greater than 99%.
